Experimental data taken from patent US20050070510A1, “Substituted tetracycline compounds as synergistic antifungal agents” (Paratek Pharmaceuticals, Inc., priority 2001, published 2005).

The compounds below were run on Candida albicans (ATCC#90028) (assay: Synergetic antifungal activity with amphotericin B, broth microdilution (NCCLS)). Conditions: amphotericin B alone.
Assay type: cell-based

Row | Structure (SMILES) | amphotericin B MIC
1 | C[C@@H]1[C@H](O)[C@@H](C)/C=C/C=C/C=C/C=C/C=C/C=C/C=C/[C@H](O[C@@H]2O[C@H](C)[C@@H](O)[C@H](N)[C@@H]2O)C[C@@H]2O[C@](O)(C[C@@H](O)C[C@@H](O)[C@H](O)CC[C@@H](O)C[C@@H](O)CC(=O)O[C@H]1C)C[C@H](O)[C@H]2C(=O)O [Amphotericin B] | 0.5 µg/mL

What follows are compounds tested on COS-1 cells (assay: In vitro mammalian cytotoxicity assay (Resazurin)). Conditions: not given.

Row | Structure (SMILES) | In Vitro Cytotoxicity
2 | CN(C)[C@@H]1C(O)=C(C(N)=O)C(=O)[C@@]2(C#N)C(O)=C3C(=O)c4c(O)ccc(-c5ccc(C(C)(C)C)cc5)c4C[C@@]3(N)C[C@@]12N [QH] | ** (toxicities less than 25 μg/mL are represented by **)
3 | CCOC(=O)C(NCc1ccc(OC)c(-c2ccc(O)c3c2C[C@@]2(N)C[C@@]4(N)[C@H](N(C)C)C(O)=C(C(N)=O)C(=O)[C@@]4(C#N)C(O)=C2C3=O)c1)C(C)C (stereo partly drawn) [NZ] | ** (toxicities less than 25 μg/mL are represented by **)
4 | CN(C)[C@@H]1C(O)=C(C(N)=O)C(=O)[C@@]2(C#N)C(O)=C3C(=O)c4c(ccc(C(C)(C)C)c4O)[C@H](N)[C@@]3(N)[C@H](O)[C@@]12N [BB] | ** (toxicities less than 25 μg/mL are represented by **)
5 | CC(C)c1cccc(-c2ccc(O)c3c2C[C@@]2(N)C[C@@]4(N)[C@H](N(C)C)C(O)=C(C(N)=O)C(=O)[C@@]4(C#N)C(O)=C2C3=O)c1 [OI] | ** (toxicities less than 25 μg/mL are represented by **)
6 | CN(C)[C@@H]1C(O)=C(C(N)=O)C(=O)[C@@]2(C#N)C(O)=C3C(=O)c4c(O)ccc(-c5ccc(CN6CCOCC6)cc5)c4C[C@@]3(N)C[C@@]12N [HT] | * (toxicities greater than >25 μg/ml are represented by *)
7 | CN(C)[C@@H]1C(O)=C(C(N)=O)C(=O)[C@@]2(C#N)C(O)=C3C(=O)c4c(O)ccc(-c5ccco5)c4C[C@@]3(N)C[C@@]12N [GO] | ** (toxicities less than 25 μg/mL are represented by **)
8 | CN(C)[C@@H]1C(O)=C(C(N)=O)C(=O)[C@@]2(C#N)C(O)=C3C(=O)c4c(O)ccc(-c5ccc(F)cc5)c4[C@H](N)[C@@]3(N)[C@H](O)[C@@]12N [CQ] | ** (toxicities less than 25 μg/mL are represented by **)
9 | COc1ccc(CN2CCCC2)cc1-c1ccc2c(c1O)C(=O)C1=C(O)[C@]3(C#N)C(=O)C(C(N)=O)=C(O)[C@@H](N(C)C)[C@]3(N)[C@@H](O)[C@]1(N)[C@H]2N [PR] | * (toxicities greater than >25 μg/ml are represented by *)
